From patent US4281009A, “Hydantoin derivatives” (Nippon Zoki Pharmaceutical Co., Ltd., priority 1978, dated 1981) come the findings set out here.

In one data set the test system is ddY-strain male mice. The experiment in a line: Effect of prolongation of sleeping time (hexobarbital). In kind it is in vivo. As to conditions: for change in vivo at 300 mg/kg: 300 mg/kg intraperitoneal. The method, then: 7. Effect of prolongation of sleeping time:
Groups of mice each comprising 10 ddY-strain male mice were used. Sodium salt of hexobarbital was given intraperitoneally. Thereafter, the period of time in which righting reflex disappeared was measured. The effect was evaluated on the basis of prolongation of time of disappearance of righting reflex by the intraperitoneal administration of the compounds of the present invention as compared with control mice.

Data set [1] in a line: Acute toxicity test (LD50, Litchfield-Wilcoxon), mice. As to conditions: mouse, in vivo, ip, intraperitoneal. The protocol:
(§1) Toxicity tests were carried out by intraperitoneal administration of the compound of the present invention to groups each comprising 10 ICR-strain mice and SD-strain rats. LD50 was calculated by the Litchfield-Wilcoxon method based on the number of death 72 hours after the administration.

Data set [2] is described as follows: Acute toxicity test (LD50, Litchfield-Wilcoxon), rats. The following applies: rat, in vivo, ip, intraperitoneal. The method, then: as §1
Data set [3] concerns normal mice and SART stress mice. The experiment in a line: Analgesic effect, D'Amour-Smith method. In kind it is in vivo, mice (ddY-strain male). As to conditions: Mus musculus, po, peroral 100 mg/kg. The protocol: 5.3. D'Amour-Smith method:
Groups each comprising 10 ddY-strain male normal mice and SART stress mice to which SART stress had been applied for 4 days were used. The root of the tail of the mouse to which black ink was applied was irradiated with infrared rays for up to 15 seconds. Time required till escape response was observed was measured. The effect was shown by the ratio of the mice in which an average value of the response time at 30, 60, 90 and 120 minutes after the administration of the compounds of the present invention or other comparative drugs was prolonged to at least 2 times as long as the time before the administration.

The test system is the same in data set [4]. Nature of the data set: Analgesic effect, tail pressure method (Randall-Selitto's device). The class given is in vivo, mice (ddY-strain male). The following applies: Mus musculus, po, peroral 100 mg/kg, average of 30, 60, 90 and 120 minutes. The method, then: 5.1 Tail pressure method:
Randall-Selitto's device for determining analgesic effect by pressure stimulation was used. […]. The compounds of the present invention or other comparative drugs were given thereto and analgesic effect was determined. The effect was judged by measuring pressure applied 60 minutes after the intraperitoneal administration of the compounds of the present invention. The pressure thus measured was divided by a pressure before the administration. The value thus obtained was compared with that of a control group (to which 10 ml./Kg of 0.5% sodium salt of carboxymethylcellulose or 0.5% Tween 80 was given). When the compounds of the present invention were given perorally and other comparative drugs were given, an average of the pressure at 30, 60, 90 and 120 minutes after the administration was employed for evaluating the effect.

For the molecule `COc1ccc(C2(c3ccc(OC)c(OC)c3)NC(=O)NC2=O)cc1` (centres unmarked) [Compound 16, 5-(3,4-Dimethoxyphenyl)-5-(4-methoxyphenyl)hydantoin], in the data set with ddY-strain male mice (Mus musculus, ip), the change in vivo at 300 mg/kg worked out at 20.8%. Besides, the median lethal dose (LD50) at 72 h in data set [1] (female), in data set [1] (male), in data set [2] (female) and in data set [2] (male) was greater than 5000 mg/kg in each case.
Consider `O=C1NC(=O)C(c2ccc(O)c(O)c2)(c2ccc(O)c(O)c2)N1` [Compound 17, 5,5-Bis(3,4-dihydroxyphenyl)hydantoin], for which the LD50 (usually the dose at which mortality reaches 50%) at 72 h is 1800 mg/kg in data set [1] (female), 1500 to 2000 mg/kg in data set [1] (male), 2220 mg/kg in data set [2] (female) and 2400 mg/kg in data set [2] (male).
Take `COc1ccc(C2(c3ccc(OC)cc3OC)NC(=O)NC2=O)cc1` (centres unmarked) [Compound 15, 5-(2,4-Dimethoxyphenyl)-5-(4-methoxyphenyl)hydantoin]: the change in vivo at 100 mg/kg in the data set on ddY-strain male mice (Mus musculus, ip, 100 mg/kg intraperitoneal) was found to be 15.4%. In the data set with ddY-strain male mice (Mus musculus, ip), this molecule gave a change in vivo at 300 mg/kg of 23.9%. Further, the LD50 at 72 h in data set [1] (female), in data set [1] (male), in data set [2] (female) and in data set [2] (male) was greater than 5000 mg/kg throughout.
For `O=C1NC(=O)C(c2ccccc2OCc2ccccc2)(c2ccccc2OCc2ccccc2)N1` [Compound 12, 5,5-Bis(2-benzyloxyphenyl)hydantoin], the LD50 at 72 h in data set [1] (female), in data set [1] (male), in data set [2] (female) and in data set [2] (male) was greater than 5000 mg/kg each time.
`Cc1ccc(C2(c3ccc(C)cc3)NC(=O)NC2=O)cc1` [Compound 13, 5,5-Bis(4-methylphenyl)hydantoin]: the change in vivo at 300 mg/kg in the data set with ddY-strain male mice (Mus musculus, ip) turned out to be 14.1%. Besides, the LD50 at 72 h in data set [1] (female), in data set [1] (male), in data set [2] (female) and in data set [2] (male) was greater than 5000 mg/kg throughout.
On to `CCCOc1ccc(C2(c3ccc(OCCC)cc3)NC(=O)NC2=O)cc1` [Compound 10, 5,5-Bis(4-propoxyphenyl)hydantoin], for which, in the data set with ddY-strain male mice (50 mg/kg intraperitoneal), the “Effect of prolongation of sleeping time” value was determined as 17.0%. In addition, the LD50 at 72 h in data set [1] (female) is 3460 mg/kg; in data set [1] (male), 3600 mg/kg; in data set [2] (female), 3800 to 4000 mg/kg; in data set [2] (male), 4000 mg/kg.
Consider `Cc1c(N(C)C)c(=O)n(-c2ccccc2)n1C` [Aminopyrine, reference compound], for which the figures for the responders at 100 mg/kg in data set [3] (SART stress mice) and in data set [3] (normal mice) were 50% and 10%, respectively. Moreover, the change in vivo at 100 mg/kg amounted to 58.9% in data set [4] (SART stress mice) and 43.5% in data set [4] (normal mice).
With `COc1ccc(C2(c3ccc(O)cc3)NC(=O)NC2=O)cc1` (centres unmarked) [Compound 11, 5-(4-Hydroxyphenyl)-5-(4-methoxyphenyl)hydantoin], the LD50 at 72 h was 3000 mg/kg in data set [1] (female), greater than 3000 mg/kg in data set [1] (male), greater than 5000 mg/kg in data set [2] (female) and greater than 5000 mg/kg in data set [2] (male).
Consider `COc1ccc(C2(c3ccc(OC)cc3OC)NC(=O)NC2=O)c(OC)c1` [Compound 18, 5,5-Bis(2,4-Dimethoxyphenyl)hydantoin], for which the LD50 at 72 h in data set [1] (female), in data set [1] (male), in data set [2] (female) and in data set [2] (male) was greater than 5000 mg/kg each time.
As to `O=C1NC(=O)C(c2ccc(O)c(CO)c2)(c2ccc(O)c(CO)c2)N1` [Compound 20, 5,5-Bis(4-hydroxy-3-hydroxymethylphenyl)hydantoin], the LD50 at 72 h in data set [1] (female) is 2980 mg/kg; in data set [1] (male), greater than 3000 mg/kg; in data set [2] (female), 4090 mg/kg; in data set [2] (male), 4310 mg/kg.
Regarding `O=C1NC(=O)C(c2ccc(O)cc2O)(c2ccc(O)cc2O)N1` [Compound 34, 5,5-Bis(2,4-dihydroxyphenyl)hydantoin], the LD50 at 72 h is 1200 mg/kg in data set [1] (female), greater than 1000 mg/kg in data set [1] (male), 2000 to 3000 mg/kg in data set [2] (female) and 2000 to 3000 mg/kg in data set [2] (male).
As to `O=C1NC(=O)C(c2ccccc2O)(c2ccccc2O)N1` [Compound 29, 5,5-Bis(2-hydroxyphenyl)hydantoin], the LD50 at 72 h is 1600 mg/kg in data set [1] (female), 1600 to 1800 mg/kg in data set [1] (male), 1900 mg/kg in data set [2] (female) and 1980 mg/kg in data set [2] (male).
